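In this assay, cells in 96-well plates receive the compound at five concentrations for 48 hours. Endpoints are linearly interpolated between the surrounding concentrations. At the GI50, growth is halved. At the TGI there is no net growth.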
Assays:
Assay in all cases: inhibition of tumour cell growth, NCI panel, 48 h
[1] = tested on: A498 renal
[2] = tested on: A549 NSCLC
[3] = tested on: ACHN renal
[4] = tested on: CAKI-1 renal
[5] = tested on: HCC-2998 colon
[6] = tested on: HCT-116 colon
[7] = tested on: HOP-62 NSCLC
[8] = tested on: IGROV1 ovarian
[9] = tested on: NCI-H226 lung
[10] = tested on: U251 CNS

Row | Compound | TGI [1] [µM] | TGI [2] [µM] | TGI [3] [µM] | TGI [4] [µM] | TGI [5] [µM] | TGI [6] [µM] | TGI [7] [µM] | TGI [8] [µM] | TGI [9] [µM] | TGI [10] [µM] | GI50 [1] [µM] | GI50 [2] [µM] | GI50 [3] [µM] | GI50 [4] [µM] | GI50 [5] [µM] | GI50 [6] [µM] | GI50 [7] [µM] | GI50 [8] [µM] | GI50 [9] [µM] | GI50 [10] [µM]
1 | C(=Nc1ccc(-c2nc3ccccc3s2)cc1)c1cccs1 | 76.6 | > 100 | > 100 | > 100 | > 100 | > 100 | > 100 | > 100 | > 100 | > 100 |  |  |  |  |  |  |  |  |  | 
2 | O=C1CC(c2cccc([N+](=O)[O-])c2)C2(C(=O)NC(=S)NC2=O)C(c2cccc([N+](=O)[O-])c2)C1 (centres undefined) | > 100 | > 100 | > 100 | 64.3 | 59.2 | 43.7 | > 100 | > 100 | 59.9 | 81.3 |  |  |  |  |  |  |  |  |  | 
3 | Oc1ccc(Nc2nc(Cl)c3[nH]cnc3n2)cc1 | > 100 | > 100 | > 100 | > 100 | > 100 | > 100 | > 100 | > 100 | > 100 | > 100 |  |  |  |  |  |  |  |  |  | 
4 | O=[N+]([O-])/C(Cl)=C(\NCCO)C(Cl)=C(Cl)Cl | > 100 | > 100 | > 100 | > 100 | > 100 | 81.5 | > 100 | > 100 | > 100 | > 100 |  |  |  |  |  |  |  |  |  | 
5 | CCOC(=O)c1c(SC(=O)c2ccc(Cl)cc2)n(-c2ccccc2)c(=S)n(-c2ccccc2)c1=O | > 100 | > 100 | > 100 | > 100 | > 100 | > 100 | > 100 | > 100 | > 100 | > 100 |  |  |  |  |  |  |  |  |  | 
6 | Cc1cc2ccccc2oc(=O)/c1=N\Nc1ccccc1 | > 100 | > 100 | > 100 | > 100 | > 100 | > 100 | 46.7 | > 100 | > 100 | > 100 |  |  |  |  |  |  |  |  |  | 
7 | Nc1ccnc2c1ncn2[C@H]1C[C@H](O)[C@@H](CO)O1 | > 100 | > 100 | > 100 | > 100 | > 100 | > 100 | > 100 | > 100 | > 100 | > 100 |  |  |  |  |  |  |  |  |  | 
8 | C#CCn1c(I)cc2c(c1=O)COC(=O)[C@]2(O)CC | > 100 | > 100 | > 100 | > 100 | > 100 | > 100 | > 100 | > 100 | > 100 | > 100 |  |  |  |  |  |  |  |  |  | 
9 | Oc1c(NCn2nc(CCCCCCCCc3nn(CNc4ccc5ccccc5c4O)c(=S)o3)oc2=S)ccc2ccccc12 | > 100 | > 100 | > 100 | > 100 | > 100 | 50.4 | > 100 | > 100 | > 100 | > 100 |  |  |  |  |  |  |  |  |  | 
10 | CC(C)(C)c1cc(C(C)(C)C)c(SC2OC(CO)C(O)C(O)C2O)c(O)c1O (centres undefined) | 34.8 | 21.3 | 22.8 | > 84.9 | 18.2 | 29.1 | 33.9 | 43.4 | 36.7 | 20.3 |  |  |  |  |  |  |  |  |  | 
11 | CC(C)(C)N=C1C(=O)C2(C)CCC1C2(C)C (centres undefined) | 41.2 | > 100 | > 100 | > 100 | > 100 | > 100 | > 100 | > 100 | > 100 | > 100 |  |  |  |  |  |  |  |  |  | 
12 | CN1COCN=C1NC#N | > 100 | > 100 | > 100 | > 100 | > 100 | > 100 | > 100 | > 100 | > 100 |  |  |  |  |  |  |  |  |  |  | 
13 | COc1ccc(N=C(C)C(C)=Nc2ccc(OC)cc2)cc1 | > 100 | > 100 | > 100 | > 100 | 82.6 | > 100 | > 100 | > 100 | > 100 | > 100 |  |  |  |  |  |  |  |  |  | 
14 | O=C(NCc1cn(Cc2cccc(Oc3ccccc3)c2)nn1)c1cccnc1NCc1ccc(Cl)cc1 | 7.95 | > 100 | > 100 | > 100 | 28.1 | 9.4 | > 100 | > 100 | > 100 | 8.7 | 2.12 | 3.21 | 4.03 | 4.36 | 4.17 | 3.18 | 5.69 | 9.03 | 4.23 | 2.66
15 | CC12CC(c3ccccc3O1)C(C(=O)Nc1nccs1)C(=O)N2 (centres undefined) | > 100 | > 100 | > 100 | > 100 | > 100 | > 100 | > 100 | > 100 | > 100 | > 100 |  |  |  |  |  |  |  |  |  | 
16 | C=C1C(=O)OC2C[C@@]3(C)CCCC(=C)C3CC12 (some centres undefined) | 19.2 | 27.7 | 26.9 | 19.4 | 26.7 | 15.2 | 34.9 | 33.3 | 26 | 21.7 |  |  |  |  |  |  |  |  |  | 
